Source: patent US9822091B2, “Method for producing ellagic acid composition” (KAO CORPORATION, priority 2013, dated 2017)

Columns and labels:
[1] = Free ellagic acid dissolved in the aqueous medium of the heat-treated solution (HPLC quantification); type: physicochemical
Method: (§1) Free ellagic acid was quantified by a gradient method using a high-performance liquid chromatograph manufactured by Hitachi, Ltd. with a column Cadenza CD-C18 (4.6 mmφ×150 mm, 3 μm) manufactured by Imtakt Corporation at a column temperature of 40° C. A 0.05 mol/L aqueous solution of acetic acid was used as a mobile phase solution A, and acetonitrile was used as a mobile phase solution B, respectively, and they were delivered at 1.0 mL/min.
(§2) The sample injection volume was 10 μL, and quantification was carried out based on an absorbance at a wavelength of 254 nm.
Solubilization ratio (%) of free ellagic acid=[(Mass of free ellagic acid dissolved in water or aqueous medium)/(Mass of free ellagic acid in material for heat treatment)]×100
The solution in the slurry supply tank was fed to a stainless-steel flow reactor having an inner volume of 100 mL (manufactured by Nitto Koatsu Co., Ltd.) at 100 mL/min, and was subjected to heat treatment at 110° C. (mean residence time: 1 minute). The pressure was adjusted to 0.3 MPa (gauge pressure) with an outlet valve. […] The cooling rate determined from the time of cooling from 110° C. to 90° C. was 7.88° C./s. A part of the heat-treated solution was sampled, and the amount of free ellagic acid dissolved in the aqueous medium was measured to determine a solubilization ratio.

[2] = Evaluation of solubility: free ellagic acid dissolved in water from the dried ellagic acid composition; type: physicochemical
Method: as §1, §2
The solubility of free ellagic acid in water in an ellagic acid composition after drying was determined by: adding the ellagic acid composition to distilled water so that the amount of solids was one in an aqueous solution or a suspension before drying; shaking the mixture at 25° C. for 5 minutes; filtering the resultant with a cellulose acetate membrane filter having a pore size of 0.2 μm; and measuring the concentration of ellagic acid dissolved therein.
Solubilization ratio (%) of free ellagic acid=[(Mass of free ellagic acid dissolved in water or aqueous medium)/(Mass of free ellagic acid in material for heat treatment)]×100 […]

Solubilization ratio [1]: 8%
Concentration of free ellagic acid dissolved in aqueous medium (25° C.) ([1]; heat-treated solution before drying, 25° C.): 6000 ng/mL
Solubilization ratio ([2]; 5 min): 6%
Concentration of free ellagic acid dissolved in water (25° C.) ([2]; composition powder after freeze or spray drying, redissolved in distilled water, shaken 5 minutes at 25° C., 0.2 μm filter): 5000 ng/mL
Structure (SMILES): O=c1oc2c(O)c(O)cc3c(=O)oc4c(O)c(O)cc1c4c23 [Comparative Example 1, ellagic acid dihydrate]
